Assay [1] deals with T1, Adenosine receptor A3 (Homo sapiens) (UniProt P0DMS8).
T1 sequence (whole entry): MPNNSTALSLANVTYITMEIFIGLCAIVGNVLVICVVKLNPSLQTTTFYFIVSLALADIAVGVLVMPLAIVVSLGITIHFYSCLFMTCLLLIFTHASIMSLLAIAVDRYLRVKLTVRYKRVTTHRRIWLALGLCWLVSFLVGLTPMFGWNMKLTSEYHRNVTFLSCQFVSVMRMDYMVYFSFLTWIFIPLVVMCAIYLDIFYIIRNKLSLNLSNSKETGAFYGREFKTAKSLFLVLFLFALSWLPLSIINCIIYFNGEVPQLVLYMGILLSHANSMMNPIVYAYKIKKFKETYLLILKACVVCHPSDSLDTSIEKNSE
The assay is described as follows: Ability to displace [125I]-AB-MECA binding from adenosine A3 receptor.

The target of assay [2] is T2, Adenosine receptor A1 (Rattus norvegicus) (UniProt P25099).
T2 sequence (whole entry): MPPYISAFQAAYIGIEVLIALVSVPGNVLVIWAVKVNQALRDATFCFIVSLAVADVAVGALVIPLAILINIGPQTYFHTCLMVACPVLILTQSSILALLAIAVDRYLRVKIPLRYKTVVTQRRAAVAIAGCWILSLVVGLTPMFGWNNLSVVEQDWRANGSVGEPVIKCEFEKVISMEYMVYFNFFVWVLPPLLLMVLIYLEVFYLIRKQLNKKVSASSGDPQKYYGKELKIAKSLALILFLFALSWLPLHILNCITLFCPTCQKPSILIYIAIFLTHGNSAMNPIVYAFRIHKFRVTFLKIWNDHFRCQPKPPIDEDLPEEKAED
The assay is described as follows: Ability to displace [3H]N6-phenylisopropyladenosine binding from adenosine A1 receptor.

The target in assay [3] is Adenosine receptor A2a (Rattus norvegicus) (UniProt P30543). Put plainly: Ability to displace [3H]-CGS- 21680 binding from adenosine A2A receptor.

“And” between values parts separate entries of the source, which are not always exact repeats. Equal values may be shown once.

The record followed here is ChEMBL document CHEMBL1131204, “Flavonoid derivatives as adenosine receptor antagonists: a comparison of the hypothetical receptor binding site based on a comparative molecular field analysis model” (J Med Chem, 1998).

Sequence of Adenosine receptor A2a (Rattus norvegicus) (P30543 whole entry): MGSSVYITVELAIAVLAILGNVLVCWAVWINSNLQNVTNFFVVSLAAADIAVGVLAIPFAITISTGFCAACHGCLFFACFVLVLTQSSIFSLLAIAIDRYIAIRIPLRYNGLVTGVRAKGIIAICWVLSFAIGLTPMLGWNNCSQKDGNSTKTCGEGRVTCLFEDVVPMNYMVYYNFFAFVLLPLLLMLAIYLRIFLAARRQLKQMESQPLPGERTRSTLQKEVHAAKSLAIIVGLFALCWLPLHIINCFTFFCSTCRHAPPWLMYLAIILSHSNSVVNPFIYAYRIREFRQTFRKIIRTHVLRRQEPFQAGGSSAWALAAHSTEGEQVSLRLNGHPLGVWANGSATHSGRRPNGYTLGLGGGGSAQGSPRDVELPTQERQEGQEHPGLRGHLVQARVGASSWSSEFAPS

As for `COc1cc(OC)c(-c2oc3ccccc3c(=O)c2O)c(OC)c1`, the pKi(uM) in assay [1] is -1.7; in assay [2], -0.86.

For the molecule `CCOc1ccc(-c2oc3cc(OCC)cc(O)c3c(=O)c2OCC)c(OCC)c1`, the pKi(uM) in assay [1] was -0.68.

Consider `CCOc1c2ccoc2cc2oc(/C=C/C=C/c3ccccc3)cc(=O)c12`, for which the pKi(uM) was -1.66 in assay [1] and -2.22 in assay [3].

With `O=c1cc(-c2ccccc2)oc2cccc(O)c12`, in assay [3], the pKi(uM) was -0.79.

The molecule `Cc1ccc(-c2oc3ccc(Cl)cc3c(=O)c2Cl)c(C(C)C)c1` gave a pKi(uM) in assay [1] of 0.25.

For the molecule `O=c1c(Cl)c(-c2ccccc2)oc2ccccc12`, the figures for the pKi(uM) in assay [1] and in assay [3] were -1.06 and -1.4, respectively.

In assay [1], `O=C1CC(c2ccccc2)Oc2ccccc21` (stereo unspecified) showed a pKi(uM) of -1.21.

As for `CCOc1c2ccoc2cc2oc(/C=C/c3ccccc3)cc(=O)c12`, the results for the pKi(uM) in assay [1], in assay [3] and in assay [2] were -0.06, -1.53 and -1.55, respectively.

`O=C1CC(c2ccc(O)cc2)Oc2ccccc21` (stereo unspecified): the pKi(uM) in assay [1] is -1.36; in assay [2], -1.06.

On to `COc1c(O)cc2oc(-c3ccc(O)cc3)cc(=O)c2c1O`, for which the pKi(uM) in assay [3] was -0.88; in assay [2], -0.21.

As for `CCOc1cc(O)c2c(=O)c(OCC)c(-c3ccccc3)oc2c1`, the pKi(uM) in assay [1] was 0.13; in assay [3], -1.8.

As to `COc1ccc(-c2cc(=O)c3c(OC)c(OC)c(OC)cc3o2)cc1`, the pKi(uM) in assay [1] is -0.65; in assay [2], -0.11.

In assay [1], `O=c1c(O)c(-c2ccccc2)oc2cc(O)cc(O)c12` had a pKi(uM) of -0.23.

As to `O=c1cc(-c2ccccc2)oc2cc(O)ccc12`, the pKi(uM) in assay [3] is -0.43; in assay [2] it was -0.48.

Turning to `CCOc1ccc(-c2oc3cc(OCC)cc(OCC)c3c(=O)c2OCC)c(OCC)c1`, the values for the pKi(uM) in assay [1] and in assay [3] were -0.86 and -1.42, respectively.

As for `COc1c2ccoc2cc2oc(C)cc(=O)c12`, the pKi(uM) was -1.78 in assay [1] and -1.63 in assay [3].

For `COc1c2ccoc2cc2oc(C=O)cc(=O)c12`, the pKi(uM) in assay [1] is -1.95.

Regarding `O=c1cc(-c2ccc(O)cc2)oc2cc(O)cc(O)c12`, the values for the pKi(uM) in assay [3] and in assay [2] were -0.88 and -0.48, respectively.

As to `COc1ccc(-c2cc(=O)c3ccc(O)cc3o2)cc1OC`, the pKi(uM) in assay [3] was -1.54; in assay [2] it was -1.27.

For `O=C1CC(c2ccccc2O)Oc2ccccc21` (stereo unspecified), the pKi(uM) in assay [1] is -0.78; in assay [3], -1.25; in assay [2], -0.42.

`COc1ccc2oc(C#Cc3ccccc3)c(O)c(=O)c2c1` came in with a pKi(uM) in assay [1] of -1.38.

Regarding `COc1ccc2c(=O)c(O)c(-c3ccc(O)c(O)c3)oc2c1`, in assay [1], the pKi(uM) was -0.14.

In assay [1], `COc1c2ccoc2cc2oc(/C=N/c3ccccc3)cc(=O)c12` returned a pKi(uM) of -0.96.

On to `COc1c2ccoc2cc2oc(/C=C/c3ccccc3)cc(=O)c12`, for which the pKi(uM) in assay [1] was -0.92; in assay [3] it was -1.06; in assay [2], -1.51.

With `CC(=O)Oc1cc(OC(C)=O)c2c(=O)c(OC(C)=O)c(-c3ccccc3)oc2c1`, the pKi(uM) is -1.24 in assay [1] and -1.06 in assay [2].

In assay [3], `O=c1c(O)c(-c2ccc(O)c(O)c2)oc2cc(O)cc(O)c12` yielded a pKi(uM) of -0.84.

With `O=c1c(Cl)c(-c2ccccc2)oc2ccc(Cl)cc12`, the pKi(uM) in assay [3] is -1.74.

With `COc1cc(O)c2c(c1)OC(c1ccc(O)cc1)CC2=O` (stereo unspecified), the pKi(uM) in assay [1] is -0.53; in assay [3], -1.55; in assay [2] it was -0.91.

For `CC(=O)Oc1cc(OC(C)=O)c2c(c1)OC(c1ccccc1)C(OC(C)=O)C2=O` (stereo unspecified), the pKi(uM) in assay [3] was -1.75.

On to `O=c1cc(-c2ccccc2)oc2ccccc12`, for which the pKi(uM) in assay [1] was -1.23; in assay [3], -0.54; in assay [2] it was -0.52.

As to `COc1ccc2c(c1)C(=O)C(O)C(C#Cc1ccccc1)O2` (stereo unspecified), the pKi(uM) in assay [1] was -0.91; in assay [2] it was -1.7.

Consider `COc1ccc2c(c1)C(=O)C(O)C(/C=C/c1ccccc1)O2` (stereo unspecified), for which the pKi(uM) in assay [1] is -1.32.

Turning to `COc1ccc(-c2cc(=O)c3c(O)cc(C)cc3o2)cc1`, the pKi(uM) in assay [1] was -1.7; in assay [3], -1.45; in assay [2] it was -0.53.

`O=c1cc(-c2ccccc2)oc2c1ccc1ccccc12`: the pKi(uM) in assay [3] was -0.12; in assay [2], 0.1.

Turning to `CCOc1cc(OCC)c2c(=O)c(OCC)c(-c3ccccc3)oc2c1`, the pKi(uM) was 0.44 in assay [1], -0.52 in assay [3] and 0.22 in assay [2].

In the case of `O=C1c2ccccc2OC(c2ccccc2O)C1O` (stereo unspecified), the pKi(uM) in assay [2] was -1.96.

On to `COc1cc(OC)c2c(=O)c(OC)c(-c3ccccc3)oc2c1`, for which the pKi(uM) in assay [1] is 0.08 and -0.09; in assay [3] it was -0.81; in assay [2], 0.29.

`COC1(OC)Cc2oc(-c3ccc(O)cc3O)c(CC=C(C)C)c(=O)c2C(O)=C1/C=C/C(C)C` had a pKi(uM) in assay [1] of -0.66.

As to `COc1ccc(-c2oc3cc(OC)cc(OC)c3c(=O)c2OC)cc1`, the pKi(uM) in assay [1] is -0.53; in assay [2], -0.03.

As to `COc1cc(OC)c2c(=O)c(OC)c(-c3cc(OC)c(OC)c(OC)c3)oc2c1`, the pKi(uM) in assay [1] is -0.82.

`COc1cc2oc(-c3ccc(O)cc3)cc(=O)c2c(O)c1OC`: the results for the pKi(uM) in assay [1], in assay [3] and in assay [2] were -0.5, -0.48 and -0.08, respectively.

Consider `CCOc1c(-c2c(C)cc(C)cc2C)oc2ccc(Cl)cc2c1=O`, for which the pKi(uM) in assay [1] was -0.72.
